Patent US20220089568A1 (Janssen Biotech, Inc., priority 2019, published 2022)

Assays:
MOLM-13 cells = assay: MOLM-13 Cellular Assay; type: cell-based; conditions: Homo sapiens, 72 hours exposure, cell viability by CellTiter-Glo
Experimental: The day prior to assay set-up, cells were pelleted, resuspended in fresh media, counted, and cells were plated at 0.4×10^6 cell/mL in a T150 flask. […] Cells were exposed to different concentrations of test compounds at 37° C., 5% CO2 for 72 hours immediately after seeding.

human DHODH = target: T1, human DHODH (Homo sapiens, UniProt Q02127); assay: DHODH Enzymatic Assay; type: biochemical; conditions: purified human DHODH; DCIP absorbance, end-point mode
T1 construct: purchased Proteros PR-0044
T1 sequence (Q02127 whole entry): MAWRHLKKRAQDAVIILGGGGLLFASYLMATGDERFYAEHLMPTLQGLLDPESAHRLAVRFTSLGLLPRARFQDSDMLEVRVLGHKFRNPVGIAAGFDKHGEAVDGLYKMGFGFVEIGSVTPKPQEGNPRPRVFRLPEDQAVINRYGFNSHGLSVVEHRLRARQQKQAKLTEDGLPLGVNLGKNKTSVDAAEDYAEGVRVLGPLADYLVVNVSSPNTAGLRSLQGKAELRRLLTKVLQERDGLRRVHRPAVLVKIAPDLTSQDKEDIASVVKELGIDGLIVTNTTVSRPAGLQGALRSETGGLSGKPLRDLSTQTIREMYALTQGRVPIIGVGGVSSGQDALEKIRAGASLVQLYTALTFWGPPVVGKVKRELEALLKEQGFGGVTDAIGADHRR
Procedure, shortened: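 Purified human DHODH activity read as absorbance of DCIP, the terminal electron acceptor, in […] pH 7.5, 150 mM NaCl, 0.5 mM EDTA, 0.1% Triton X-100. Reaction started with a substrate mix of 20 mM DHO, 5 mM CoQ6 and 1 mM DCIP in assay buffer.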

Compound | EC50 (MOLM-13 cells) | EC50 (human DHODH)
Cc1ccnc(Cl)c1NC(=O)c1cc(F)c(-n2nc(CF)n(C(C)C)c2=O)nc1O[C@@H](C)C(F)(F)F [Example 86, (S)-2-(5-(((2-Chloro-4-methylpyridin-3-yl)-l2-azaneyl)carbonyl)-3-fluoro-6-((1,1,1-trifluoropropan-2-yl)oxy)pyridin-2-yl)-5-(fluoromethyl)-4-isopropyl-2,4-dihydro-3H-1,2,4-triazol-3-one] | 1.8 nM | 3.9 nM
CCn1c(CF)nn(-c2nc(O[C@@H](C)C(F)(F)F)c(C(=O)Nc3c(C)ccnc3Cl)cc2F)c1=O [Example 87, N-(2-Chloro-4-methyl-3-pyridyl)-6-[4-ethyl-3-(fluoromethyl)-5-oxo-1,2,4-triazol-1-yl]-5-fluoro-2-[(1S)-2,2,2-trifluoro-1-methyl-ethoxy]pyridine-3-carboxamide] | 1.14 nM | 0.448 nM
CCn1c(CO)nn(-c2nc(OC(C)C)c(C(=O)Nc3c(C)cnc(OC)c3Cl)cc2F)c1=O [Example 88, N-(3-Chloro-2-methoxy-5-methyl-4-pyridyl)-6-[4-ethyl-3-(hydroxymethyl)-5-oxo-1,2,4-triazol-1-yl]-5-fluoro-2-isopropoxy-pyridine-3-carboxamide] | 2.34 nM | 1.16 nM
Cc1ccnc(Cl)c1NC(=O)c1cc(F)c(-n2nc(CO)n(CC(F)F)c2=O)nc1O[C@@H](C)C(F)(F)F [Example 90, N-(2-Chloro-4-methyl-3-pyridyl)-6-[4-(2,2-difluoroethyl)-3-(hydroxymethyl)-5-oxo-1,2,4-triazol-1-yl]-5-fluoro-2-[(1S)-2,2,2-trifluoro-1-methyl-ethoxy]pyridine-3-carboxamide] | 14.9 nM | 23.1 nM
CCCn1c(CO)nn(-c2nc(O[C@@H](C)C(F)(F)F)c(C(=O)Nc3c(C)n[nH]c3Cl)cc2F)c1=O [Example 91, N-(5-Chloro-3-methyl-1H-pyrazol-4-yl)-5-fluoro-6-[3-(hydroxymethyl)-5-oxo-4-propyl-1,2,4-triazol-1-yl]-2-[(1S)-2,2,2-trifluoro-1-methyl-ethoxy]pyridine-3-carboxamide] | 2.04 nM | 3.86 nM
CCCn1c(CF)nn(-c2nc(O[C@@H](C)C(F)(F)F)c(C(=O)Nc3c(C)ccnc3Cl)cc2F)c1=O [Example 92, N-(2-Chloro-4-methyl-3-pyridyl)-5-fluoro-6-[3-(fluoromethyl)-5-oxo-4-propyl-1,2,4-triazol-1-yl]-2-[(1S)-2,2,2-trifluoro-1-methyl-ethoxy]pyridine-3-carboxamide] | 0.435 nM | 0.639 nM
CCn1c(CO)nn(-c2nc(O[C@@H](C)C(F)(F)F)c(C(=O)Nc3c(OC)ccnc3OC)cc2F)c1=O [Example 93, N-(2,4-Dimethoxy-3-pyridyl)-6-[4-ethyl-3-(hydroxymethyl)-5-oxo-1,2,4-triazol-1-yl]-5-fluoro-2-[(1S)-2,2,2-trifluoro-1-methyl-ethoxy]pyridine-3-carboxamide] | 4.14 nM | 13.8 nM
CCn1c(CO)nn(-c2nc(O[C@@H](C)C(F)(F)F)c(C(=O)Nc3c(OC)ncnc3OC)cc2F)c1=O [Example 94, N-(4,6-Dimethoxypyrimidin-5-yl)-6-[4-ethyl-3-(hydroxymethyl)-5-oxo-1,2,4-triazol-1-yl]-5-fluoro-2-[(1S)-2,2,2-trifluoro-1-methyl-ethoxy]pyridine-3-carboxamide] | 48 nM | > 33 nM
CCn1c(CF)nn(-c2nc(O[C@@H](C)C(F)(F)F)c(C(=O)Nc3c(C)n[nH]c3Cl)cc2F)c1=O [Example 96, N-(5-Chloro-3-methyl-1H-pyrazol-4-yl)-6-[4-ethyl-3-(fluoromethyl)-5-oxo-1,2,4-triazol-1-yl]-5-fluoro-2-[(1S)-2,2,2-trifluoro-1-methyl-ethoxy]pyridine-3-carboxamide] | 0.32 nM | 0.382 nM
CCCn1c(CF)nn(-c2nc(O[C@@H](C)C(F)(F)F)c(C(=O)Nc3c(C)n[nH]c3Cl)cc2F)c1=O [Example 99, N-(5-Chloro-3-methyl-1H-pyrazol-4-yl)-5-fluoro-6-[3-(fluoromethyl)-5-oxo-4-propyl-1,2,4-triazol-1-yl]-2-[(1S)-2,2,2-trifluoro-1-methyl-ethoxy]pyridine-3-carboxamide] | 0.38 nM | 0.975 nM
CCn1c(CO)nn(-c2nc(O[C@@H](C)C(F)(F)F)c(C(=O)Nc3c[nH]nc3C#N)cc2F)c1=O [Example 100, N-(3-Cyano-1H-pyrazol-4-yl)-6-[4-ethyl-3-(hydroxymethyl)-5-oxo-1,2,4-triazol-1-yl]-5-fluoro-2-[(1S)-2,2,2-trifluoro-1-methyl-ethoxy]pyridine-3-carboxamide] | 19 nM | > 100 nM
CCn1c(CO)nn(-c2nc(O[C@@H](C)C(F)(F)F)c(C(=O)Nc3c(OC)cc(C)nc3C)cc2F)c1=O [Example 103, 6-[4-ethyl-3-(hydroxymethyl)-5-oxo-1,2,4-triazol-1-yl]-5-fluoro-N-(4-methoxy-2,6-dimethyl-3-pyridyl)-2-[(1S)-2,2,2-trifluoro-1-methyl-ethoxy]pyridine-3-carboxamide] | 17.3 nM | > 100 nM
CCn1c(CO)nn(-c2nc(O[C@@H](C)C(F)(F)F)c(C(=O)Nc3nccc(OC)c3Cl)cc2F)c1=O [Example 104, N-(3-Chloro-4-methoxy-2-pyridyl)-6-[4-ethyl-3-(hydroxymethyl)-5-oxo-1,2,4-triazol-1-yl]-5-fluoro-2-[(1S)-2,2,2-trifluoro-1-methyl-ethoxy]pyridine-3-carboxamide] | 7.59 nM | 6.62 nM
CCOc1ccnc(NC(=O)c2cc(F)c(-n3nc(CO)n(CC)c3=O)nc2O[C@@H](C)C(F)(F)F)c1Cl [Example 105, N-(3-Chloro-4-ethoxy-2-pyridyl)-6-[4-ethyl-3-(hydroxymethyl)-5-oxo-1,2,4-triazol-1-yl]-5-fluoro-2-[(1S)-2,2,2-trifluoro-1-methyl-ethoxy]pyridine-3-carboxamide] | 4.6 nM | 3.4 nM
CCn1c(CF)nn(-c2nc(OC(C)C)c(C(=O)Nc3c(C)n[nH]c3Cl)cc2F)c1=O [Example 108, N-(5-Chloro-3-methyl-1H-pyrazol-4-yl)-6-[4-ethyl-3-(fluoromethyl)-5-oxo-1,2,4-triazol-1-yl]-5-fluoro-2-isopropoxy-pyridine-3-carboxamide] | 0.17 nM | 0.851 nM

The next lines start with the values.

EC50 (MOLM-13 cells) | EC50 (human DHODH) | Compound
4.09 nM | 10.7 nM | Cc1ccnc(Cl)c1NC(=O)c1cc(F)c(-n2nc(CO)n(C(C)C)c2=O)nc1O[C@@H](C)C(F)(F)F [Example 89, N-(2-Chloro-4-methyl-3-pyridyl)-5-fluoro-6-[3-(hydroxymethyl)-4-isopropyl-5-oxo-1,2,4-triazol-1-yl]-2-[(1S)-2,2,2-trifluoro-1-methyl-ethoxy]pyridine-3-carboxamide]
1.23 nM | 2.09 nM | CCn1c(CO)nn(-c2nc(O[C@@H](C)C(F)(F)F)c(C(=O)Nc3c[nH]nc3C(F)(F)F)cc2F)c1=O [Example 95, 6-[4-Ethyl-3-(hydroxymethyl)-5-oxo-1,2,4-triazol-1-yl]-5-fluoro-2-[(1S)-2,2,2-trifluoro-1-methyl-ethoxy]-N-[3-(trifluoromethyl)-1H-pyrazol-4-yl]pyridine-3-carboxamide]
1.06 nM | 1.15 nM | CCn1c(CF)nn(-c2nc(OC(C)C)c(C(=O)Nc3c(C)ccnc3Cl)cc2F)c1=O [Example 97, N-(2-Chloro-4-methyl-3-pyridyl)-6-[4-ethyl-3-(fluoromethyl)-5-oxo-1,2,4-triazol-1-yl]-5-fluoro-2-isopropoxy-pyridine-3-carboxamide]
41.6 nM | 91.4 nM | CCn1c(CO)nn(-c2nc(O[C@@H](C)C(F)(F)F)c(C(=O)Nc3cc(OC)ncc3Cl)cc2F)c1=O [Example 98, N-(5-Chloro-2-methoxy-4-pyridyl)-6-[4-ethyl-3-(hydroxymethyl)-5-oxo-1,2,4-triazol-1-yl]-5-fluoro-2-[(1S)-2,2,2-trifluoro-1-methyl-ethoxy]pyridine-3-carboxamide]
19.4 nM | 39.4 nM | Cc1ccnc(Cl)c1NC(=O)c1cc(F)c(-n2nc(CF)n(CCCO)c2=O)nc1O[C@@H](C)C(F)(F)F [Example 101, N-(2-Chloro-4-methyl-3-pyridyl)-5-fluoro-6-[3-(fluoromethyl)-4-(3-hydroxypropyl)-5-oxo-1,2,4-triazol-1-yl]-2-[(1S)-2,2,2-trifluoro-1-methyl-ethoxy]pyridine-3-carboxamide]
1.39 nM | 20.1 nM | CCn1c(CO)nn(-c2nc(O[C@@H](C)C(F)(F)F)c(C(=O)Nc3c(Cl)ncc(C)c3C)cc2F)c1=O [Example 102, N-(2-Chloro-4,5-dimethyl-3-pyridyl)-6-[4-ethyl-3-(hydroxymethyl)-5-oxo-1,2,4-triazol-1-yl]-5-fluoro-2-[(1S)-2,2,2-trifluoro-1-methyl-ethoxy]pyridine-3-carboxamide]
0.792 nM | 2.9 nM | CCn1c(CO)nn(-c2nc(O[C@@H](C)C(F)(F)F)c(C(=O)Nc3c(C)cc(OC)nc3Cl)cc2F)c1=O [Example 106, N-(2-Chloro-6-methoxy-4-methyl-3-pyridyl)-6-[4-ethyl-3-(hydroxymethyl)-5-oxo-1,2,4-triazol-1-yl]-5-fluoro-2-[(1S)-2,2,2-trifluoro-1-methyl-ethoxy]pyridine-3-carboxamide]
1.5 nM | 18.1 nM | Cc1[nH]nc(Cl)c1NC(=O)c1cc(F)c(-n2nc(CF)n(CCCO)c2=O)nc1O[C@@H](C)C(F)(F)F [Example 107, N-(3-Chloro-5-methyl-1H-pyrazol-4-yl)-5-fluoro-6-[3-(fluoromethyl)-4-(3-hydroxypropyl)-5-oxo-1,2,4-triazol-1-yl]-2-[(1S)-2,2,2-trifluoro-1-methyl-ethoxy]pyridine-3-carboxamide]
